Measured values reported in patent EP1566447A1, “Glimepiride- and insulin-induced glycosylphosphatidylinositol-specific phospholipase C regulation” (priority 2004, dated 2005).

Experiments:
[1] = tested on: GPI-PLC of hcDIGs from rat adipocytes; test: adipocyte GPI-PLC assay (cleavage of AChE, TX-114 partitioning); type: biochemical; settings: 1 mM; hcDIGs from rat adipocytes
Procedure: Biophys. […] Each reaction mixture was subjected to TX-114 partitioning (see below).
After incubation for 1 h on ice, the mixture was layered onto a cushion of 0.4 ml of 0.25 M sucrose and 25 mM Tris/HCl (pH 7.4) on ice.
Cleavage rate was calculated from the amount of hydrophilic AChE and aP activity recovered with the TX-114-depleted phase upon TX-114 partitioning.

rat adipocytes = test: isoproterenol-induced lipolysis measured as release of NBD-FA; type: cell-based; settings: 50 µM; Fig. 9 Panels A, B
Procedure: Electroporation was performed as described in "Müller, G. et al., (2000) Mol. Cell. Biol. 20: 4708-4723". Lipolysis was determined as release of glycerol or fluorescent NBD-FA from prelabeled and isoproterenol-stimulated adipocytes as described in "Müller, G. et al., (2003) Biochimie 85: 1245-1256". Gce1 was detected by photolabeling of solubilized plasma membranes or hc/IcDIGs (10-50 µg protein) with 8-N3-[^32P]cAMP and subsequent phosphorimaging as described in "Müller, G. et al., (1994) Biochemistry 33: 12149-12159". 5'-Nuc, aP and AChE activities were measured according to "Eliakim, R. et al., (1990) Biochim. Biophys. Acta […]". Protein was determined using the BCA protein determination kit from Pierce (Rockford, IL) and BSA as calibration standard. SDS-PAGE was performed using precast gels (Novex, San Diego, CA; 10 % Bis-Tris resolving gel, morpholinopropanesulfonic acid-SDS running buffer). Lumiimages were evaluated on a Lumilmager using Lumilmager software (Roche Diagnostics). Phosphor- and fluorescence images were processed and quantified using the Storm 860 Phosphorlmager system (Molecular Dynamics, Gelsenkirchen, Germany). Figures were constructed using the Adobe Photoshop software (Adobe Systems, Mountain View, CA). […]

[2] = tested on: patients with type 2 diabetes; settings: cited from earlier work

SMILES	inhibition % at 1 mM [1]	effect on the glimepiride-induced reduction of NBD-FA release (rat adipocytes)	hypoglycaemia occurred in patients ([2]; monotherapy, treated for ≤1 year)	effective dosage range ([2]; patients with type 2 diabetes)	activation of GPI-PLC (GPI-PLC; direct incubation of hcDIGs from untreated adipocytes, Fig. 4 Panel A)	stimulation of GPI-PLC activity (GPI-PLC; hcDIGs prepared from pretreated adipocytes, Fig. 4 Panel C, 20 µM)
CCCCCCCCCCCCP(=O)(OC)O[C@@H]1[C@H](O)[C@H](O)[C@@H](O)[C@H](O)[C@H]1O (stereo partly drawn) [GPI-2349, myo-inositol-1-O-dodecylphosphonic acid methylester]	27 ± 6%	–	–	–	–	–
CCC1=C(C)CN(C(=O)NCCc2ccc(S(=O)(=O)NC(=O)N[C@H]3CC[C@H](C)CC3)cc2)C1=O [Glimepiride, glimepiride]	–	completely abrogated	10 to 20%	0.5 to 8 mg/day	up to 4 fold	3 fold
